“And” between values parts separate entries of the source, which are not always exact repeats. Equal entries are not always repeated.
Target: PfCRT^Dd2 (Plasmodium falciparum, UniProt Q9N623, A220S/I356T/K76T/M74I/N326S/N75E/Q271E/R371I)
Experiment: Drug uptake assay, X. laevis oocytes expressing PfCRT^Dd2
Assay type: cell-based
Details: for Kd: KS^CQ; for Vmax: CQ vs protons
Protocol: Oocytes were obtained as described previously. Briefly, adult (>2 years old) female X. laevis frogs (NASCO) were anesthetized in a cooled solution of ethyl 3-amino benzoate methanesulfonate (0.1%, w/v), followed by a surgical removal of parts of the ovary. The ovary lobes were carefully dissected and small pieces of oocytes were incubated in Ca^2+-free ND96 buffer (96 mM NaCl, 2 mM KCl, 1 mM MgCl2 buffered with 5 mM HEPES/NaOH, pH 7.5) supplemented with collagenase D (0.1%, w/v; Roche), BSA (0.5%, w/v), and 9 mm Na2HPO4 at 18 °C for 14-16 h while gentle shaking. After incubation, the oocytes were carefully washed several times with ND96 buffer (96 mM NaCl, 2 mM KCl, 1.8 mM CaCl2, 1 mM MgCl2 buffered with 5 mM HEPES/NaOH, pH 7.5) supplemented with 100 mg l^−1 gentamycin). Defolliculated and healthy-looking stage V-VI oocytes were manually selected for RNA microinjection. The RNA was generated as following: The codon-optimized sequences of PfCRT variants were cloned into the pSP64T expression vector. After vector linearization using the restriction endonucleases BamHI or SalI (New England Biolabs), transcription was performed using the in vitro SP6 mMessage mMachine Kit (Ambion)[34]. The obtained RNA was kept at −80 °C and diluted with nuclease-free water to a concentration of 0.6 μg μl^−1. Precision-bore glass capillary tubes (3.5-inch glass capillaries; Drummond Scientific Co.) were pulled on a vertical puller (P-87 Flaming/Brown micropipette puller, Sutter Instrument Co.), graduated, and placed on a microinjector (Nanoject II Auto-Nanoliter Injector, Drummond Scientific Co.). 50 nl of nuclease-free water alone (control oocytes) or 50 nl of 0.6 μg μl^−1 RNA were injected under stereomicroscopic control. Injected oocytes were incubated for 46–72 h at 18 °C with twice-daily buffer changes before usage in experiments.
Drug uptake assays were performed as described previously[21],[22],[24],[34]. […] The direction of radio-labeled drug transport is here from the mostly acidic extracellular solution (pH 4.5 or 6.0, as indicated) into the oocyte cytosol (pH ∼ 7.2), which corresponds to the efflux of drug from the acidic digestive vacuole (pH 5.2) into the parasite cytoplasm (pH 7.2). The topology of PfCRT in the oolemma is such that both the N- and C-terminus face the extracellular milieu[3],[22]. In the parasite, the N- and C-terminus face the lumen of the digestive vacuole. […] For determination of the amount of drug uptake for each oocyte, the reaction medium was removed and the oocytes were washed three times with 2 ml of ice-cold ND96 buffer. Each oocyte was individually transferred to a scintillation vial containing 5% sodium dodecyl sulfate (200 μl) for lysis. […] Oocytes that were injected with water instead of RNA were analyzed in parallel, representing the uptake of a drug by diffusion and/or endogenous permeation pathways. The resulting value represents the “background“ level of drug accumulation in oocytes (in-depth discussion in[22]). The specific PfCRT-mediated uptake was determined by subtracting the corresponding background value measured in water-injected oocytes from that of PfCRT-expressing oocytes. In all cases, at least three separate experiments were performed on oocytes from different frogs (biological replicate), and for each condition in an experiment, measurements were made from 10 oocytes per treatment. For pH 5.5, 6.0, and 6.5, ND96 was buffered with 5 mM MES/Tris base. For pH 4.5, 5 mM Homo-Pipes was used as a buffer and 5 mM HEPES for uptake at pH 7.0.

[1] = mixed (partial) model, mean ± SEM
[2] = PfCRTDd2, 50 µM CQ, 1 h, mean ± SEM

Chain of PfCRT^Dd2 (Q9N623 whole entry A220S/I356T/K76T/M74I/N326S/N75E/Q271E/R371I): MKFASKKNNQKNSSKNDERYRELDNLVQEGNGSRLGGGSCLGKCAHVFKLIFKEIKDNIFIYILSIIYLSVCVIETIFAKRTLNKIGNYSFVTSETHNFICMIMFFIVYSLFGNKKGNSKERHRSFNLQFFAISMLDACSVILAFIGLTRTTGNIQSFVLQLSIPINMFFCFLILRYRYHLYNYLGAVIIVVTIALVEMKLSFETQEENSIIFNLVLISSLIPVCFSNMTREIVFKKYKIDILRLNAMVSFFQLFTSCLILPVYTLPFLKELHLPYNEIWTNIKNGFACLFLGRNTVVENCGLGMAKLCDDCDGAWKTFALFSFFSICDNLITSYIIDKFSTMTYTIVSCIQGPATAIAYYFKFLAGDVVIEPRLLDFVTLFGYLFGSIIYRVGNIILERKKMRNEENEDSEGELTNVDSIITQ

CCN(CC)CCCC(C)Nc1ccnc2cc(Cl)ccc12 (centres unmarked) [CQ, chloroquine]
v-1 pH 6.0 (500 µM CQ, Lineweaver-Burk): 0.05 (pmol oocyte-1 h-1)-1 | inflection point in the weakly acidic pH range (CQ transport vs pH): ~ 5.2 pH | PfCRTDd2 transport activity pH 4.5 (CQ uptake, X. laevis oocytes expressing PfCRTDd2, pH 4.5, individual replicates (Fig 6b)): 0.81 pmol oocyte-1 h-1 and 1.13 pmol oocyte-1 h-1 and 0.91 pmol oocyte-1 h-1 and 1.51 pmol oocyte-1 h-1 and 1.64 pmol oocyte-1 h-1 and 1.57 pmol oocyte-1 h-1 | PfCRTDd2 transport activity pH 4.5 (CQ uptake, X. laevis oocytes expressing PfCRTDd2, pH 4.5, individual replicates (source data Fig 1d left)): 0.89 pmol oocyte-1 h-1 and 0.81 pmol oocyte-1 h-1 and 1.13 pmol oocyte-1 h-1 and 0.91 pmol oocyte-1 h-1 and 1.51 pmol oocyte-1 h-1 and 1.64 pmol oocyte-1 h-1 | PfCRTDd2 transport activity pH 6.0 (CQ uptake, X. laevis oocytes expressing PfCRTDd2, pH 6.0, individual replicates (Fig 6b)): 3.69 pmol oocyte-1 h-1 and 3.79 pmol oocyte-1 h-1 and 3.00 pmol oocyte-1 h-1 and 3.40 pmol oocyte-1 h-1 and 3.90 pmol oocyte-1 h-1 and 6.11 pmol oocyte-1 h-1 and 4.28 pmol oocyte-1 h-1 and 5.58 pmol oocyte-1 h-1 and 6.47 pmol oocyte-1 h-1 and 3.37 pmol oocyte-1 h-1 and 3.28 pmol oocyte-1 h-1 and 4.53 pmol oocyte-1 h-1 and 3.68 pmol oocyte-1 h-1 and 5.95 pmol oocyte-1 h-1 and 11.50 pmol oocyte-1 h-1 and 6.00 pmol oocyte-1 h-1 and 4.23 pmol oocyte-1 h-1 and 6.19 pmol oocyte-1 h-1 and 4.62 pmol oocyte-1 h-1 and 6.53 pmol oocyte-1 h-1 | PfCRTDd2 transport activity pH 6.0 (CQ uptake, X. laevis oocytes expressing PfCRTDd2, pH 6.0, individual replicates (source data Fig 1d left)): 5.87 pmol oocyte-1 h-1 and 4.37 pmol oocyte-1 h-1 and 4.87 pmol oocyte-1 h-1 and 4.94 pmol oocyte-1 h-1 and 5.55 pmol oocyte-1 h-1 and 3.80 pmol oocyte-1 h-1 and 3.69 pmol oocyte-1 h-1 and 3.79 pmol oocyte-1 h-1 and 3.00 pmol oocyte-1 h-1 and 3.40 pmol oocyte-1 h-1 and 3.90 pmol oocyte-1 h-1 and 6.11 pmol oocyte-1 h-1 and 4.28 pmol oocyte-1 h-1 and 5.58 pmol oocyte-1 h-1 and 6.47 pmol oocyte-1 h-1 and 3.37 pmol oocyte-1 h-1 and 3.28 pmol oocyte-1 h-1 and 4.53 pmol oocyte-1 h-1 and 3.68 pmol oocyte-1 h-1 and 5.95 pmol oocyte-1 h-1 | PfCRTDd2 transport activity pH 4.5 with preincubation 1 h at pH 4.5 (CQ uptake, independent samples): 5.80 pmol oocyte-1 h-1 and 5.85 pmol oocyte-1 h-1 and 2.93 pmol oocyte-1 h-1 | PfCRTDd2 transport activity pH 4.5 without preincubation (CQ uptake, independent samples): 5.79 pmol oocyte-1 h-1 and 5.26 pmol oocyte-1 h-1 and 2.99 pmol oocyte-1 h-1 | Kd [1]: 320 ± 100 µM | Kd (noncompetitive (partial) model, called KM, mean ± SEM): 220 ± 25 µM | Activity at pH 4.5 [2]: 1.20 ± 0.10 pmol h-1 oocyte-1 | Activity at pH 6.0 [2]: 5.05 ± 0.23 pmol h-1 oocyte-1 | R-value (PfCRTDd2, CQ transport at pH 4.5 / pH 6.0): ~ 0.2 and 0.24 ± 0.01 | Vmax ± SEM (PfCRT^Dd2, pH 4.5): 14 ± 2 pmol h^−1 oocyte ^−1 | Vmax ± SEM (PfCRT^Dd2, pH 6.0): 32 ± 2 pmol h^−1 oocyte ^−1 | PfCRTDd2 R-value (R-value from transport activity at pH 4.5 and pH 6.0, individual replicates (source data Fig 1d left)): 0.23 and 0.27 and 0.25 | PfCRTDd2 R-value (R-value from transport activity at pH 4.5 and pH 6.0, oocytes expressing PfCRTDd2, source data Fig 1d left): 0.25 | pH of maximal CQ transport activity (bell-shaped curve, pH 4.5 to 7.0, 50 µM CQ): 6.2 ± 0.3 pH | CQ transport activity, oocytes pre-treated 1 h at pH 4.5 vs untreated (in words): no significant differences | Vmax [1]: 45 ± 9 pmol h^−1 oocyte^−1 | α (mixed (partial) model, factor by which KS values change when other substrate is bound): 0.53 ± 0.26 | β (mixed (partial) model, factor by which Vmax is affected by the inhibitor): 0.27 ± 0.06 | Vmax (noncompetitive (partial) model, mean ± SEM): 40 ± 4 pmol h^−1 oocyte^−1 | β (noncompetitive (partial) model, factor by which Vmax is affected by bound proton): 0.36 ± 0.02 | PfCRTDd2 transport activity pH 4.5 (pH 4.5, individual replicates (Fig 6a)): 0.82 pmol oocyte-1 h-1 and 2.03 pmol oocyte-1 h-1 and 1.25 pmol oocyte-1 h-1 and 0.75 pmol oocyte-1 h-1 and 1.02 pmol oocyte-1 h-1 and 0.89 pmol oocyte-1 h-1 and 0.81 pmol oocyte-1 h-1 and 1.13 pmol oocyte-1 h-1 and 0.91 pmol oocyte-1 h-1 and 1.51 pmol oocyte-1 h-1 and 1.64 pmol oocyte-1 h-1 and 1.57 pmol oocyte-1 h-1 and 1.05 pmol oocyte-1 h-1 and 1.43 pmol oocyte-1 h-1 | PfCRTDd2 transport activity pH 4.5 (pH 4.5, individual replicates, Fig 6b): 0.82 pmol oocyte-1 h-1 and 2.03 pmol oocyte-1 h-1 and 1.25 pmol oocyte-1 h-1 and 0.75 pmol oocyte-1 h-1 and 1.02 pmol oocyte-1 h-1 and 0.89 pmol oocyte-1 h-1 and 1.05 pmol oocyte-1 h-1 and 1.43 pmol oocyte-1 h-1 | PfCRTDd2 transport activity pH 4.5 (pH 4.5, oocytes expressing PfCRTDd2, individual replicate values, source data Fig 1d left): 1.57 pmol oocyte-1 h-1 | PfCRTDd2 transport activity pH 4.5 (pH 4.5, single replicates, Fig 1d left): 2.03 pmol oocyte-1 h-1 and 1.25 pmol oocyte-1 h-1 and 0.75 pmol oocyte-1 h-1 and 1.02 pmol oocyte-1 h-1 and 1.05 pmol oocyte-1 h-1 and 1.43 pmol oocyte-1 h-1 and 0.82 pmol oocyte-1 h-1 | PfCRTDd2 R-value (pH 4.5 vs pH 6.0, Fig 1d left): 0.27 and 0.30 and 0.19 and 0.23 and 0.17 and 0.15 | PfCRTDd2 transport activity pH 6.0 (pH 6.0, individual replicates, Fig 6b): 5.64 pmol oocyte-1 h-1 and 4.84 pmol oocyte-1 h-1 and 7.93 pmol oocyte-1 h-1 and 4.17 pmol oocyte-1 h-1 and 7.55 pmol oocyte-1 h-1 and 4.19 pmol oocyte-1 h-1 and 4.00 pmol oocyte-1 h-1 and 4.20 pmol oocyte-1 h-1 and 4.01 pmol oocyte-1 h-1 and 4.51 pmol oocyte-1 h-1 and 5.87 pmol oocyte-1 h-1 and 4.37 pmol oocyte-1 h-1 and 4.87 pmol oocyte-1 h-1 and 4.94 pmol oocyte-1 h-1 and 5.55 pmol oocyte-1 h-1 and 3.80 pmol oocyte-1 h-1 and 4.33 pmol oocyte-1 h-1 and 4.86 pmol oocyte-1 h-1 and 6.59 pmol oocyte-1 h-1 and 6.15 pmol oocyte-1 h-1 and 4.02 pmol oocyte-1 h-1 and 5.29 pmol oocyte-1 h-1 and 5.21 pmol oocyte-1 h-1 | PfCRTDd2 transport activity pH 6.0 (pH 6.0, oocytes expressing PfCRTDd2, individual replicate values, source data Fig 1d left): 11.50 pmol oocyte-1 h-1 and 6.00 pmol oocyte-1 h-1 and 4.23 pmol oocyte-1 h-1 and 6.19 pmol oocyte-1 h-1 and 4.62 pmol oocyte-1 h-1 and 6.53 pmol oocyte-1 h-1 | PfCRTDd2 transport activity pH 6.0 (pH 6.0, single replicates, Fig 1d left): 5.64 pmol oocyte-1 h-1 and 4.84 pmol oocyte-1 h-1 and 7.93 pmol oocyte-1 h-1 and 4.17 pmol oocyte-1 h-1 and 7.55 pmol oocyte-1 h-1 and 4.19 pmol oocyte-1 h-1 and 4.00 pmol oocyte-1 h-1 and 4.20 pmol oocyte-1 h-1 and 4.01 pmol oocyte-1 h-1 and 4.51 pmol oocyte-1 h-1 and 4.33 pmol oocyte-1 h-1 and 4.86 pmol oocyte-1 h-1 and 6.59 pmol oocyte-1 h-1 and 6.15 pmol oocyte-1 h-1 and 4.02 pmol oocyte-1 h-1 and 5.29 pmol oocyte-1 h-1 and 5.21 pmol oocyte-1 h-1 | PfCRTDd2 R-value (ratio of activity pH 4.5 / pH 6.0): 0.15 and 0.27 and 0.30 and 0.19 and 0.23 and 0.17 | PfCRTDd2 R-value (ratio of transport activity pH 4.5 to pH 6.0, individual replicates (Fig 6b)): 0.27 and 0.25 | PfCRTDd2 R-value (transport activity pH 4.5 relative to pH 6.0 (Fig 6a)): 0.15 and 0.27 and 0.30 and 0.19 and 0.23 and 0.25 and 0.17

— article PMC10349806 (Nature Communications, 2023)
